Assay results reported in PubChem BioAssay (NCI).
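A five-concentration, 48-hour dose response in 96-well plates underlies each endpoint, interpolated linearly between surrounding concentrations. At the TGI there is no net growth.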

Experiments:
Experiment in all cases: NCI-60 cell line screen, 48 h
786-0 renal = tested on: 786-0 renal
A498 renal = tested on: A498 renal
A549 NSCLC = tested on: A549 NSCLC
ACHN renal = tested on: ACHN renal
CCRF-CEM leukemia = tested on: CCRF-CEM leukemia
COLO 205 colon = tested on: COLO 205 colon
DLD-1 colon = tested on: DLD-1 colon
DMS 114 small cell lung = tested on: DMS 114 small cell lung
DMS 273 small cell lung = tested on: DMS 273 small cell lung
EKVX NSCLC = tested on: EKVX NSCLC
HCC-2998 colon = tested on: HCC-2998 colon
HCT-116 colon = tested on: HCT-116 colon
HCT-15 colon = tested on: HCT-15 colon
HL-60(TB) leukemia = tested on: HL-60(TB) leukemia
HOP-18 NSCLC = tested on: HOP-18 NSCLC
HOP-62 NSCLC = tested on: HOP-62 NSCLC
HT29 colon = tested on: HT29 colon
IGROV1 ovarian = tested on: IGROV1 ovarian
K-562 leukemia = tested on: K-562 leukemia
KM12 colon = tested on: KM12 colon
KM20L2 colon = tested on: KM20L2 colon
LOX IMVI melanoma = tested on: LOX IMVI melanoma
M19-MEL melanoma = tested on: M19-MEL melanoma
MALME-3M melanoma = tested on: MALME-3M melanoma
MOLT-4 leukemia = tested on: MOLT-4 leukemia
NCI-H226 lung = tested on: NCI-H226 lung
NCI-H23 lung = tested on: NCI-H23 lung
NCI-H460 lung = tested on: NCI-H460 lung
NCI-H522 lung = tested on: NCI-H522 lung
OVCAR-3 ovarian = tested on: OVCAR-3 ovarian
OVCAR-4 ovarian = tested on: OVCAR-4 ovarian
OVCAR-5 ovarian = tested on: OVCAR-5 ovarian
OVCAR-8 ovarian = tested on: OVCAR-8 ovarian
RPMI-8226 leukemia = tested on: RPMI-8226 leukemia
RXF 393 renal = tested on: RXF 393 renal
SF-268 CNS = tested on: SF-268 CNS
SF-295 CNS = tested on: SF-295 CNS
SF-539 CNS = tested on: SF-539 CNS
SK-MEL-2 melanoma = tested on: SK-MEL-2 melanoma
SK-MEL-28 melanoma = tested on: SK-MEL-28 melanoma
SK-MEL-5 melanoma = tested on: SK-MEL-5 melanoma
SK-OV-3 ovarian = tested on: SK-OV-3 ovarian
SN12C renal = tested on: SN12C renal
SNB-19 CNS = tested on: SNB-19 CNS
SNB-75 CNS = tested on: SNB-75 CNS
SNB-78 CNS = tested on: SNB-78 CNS
SR leukemia = tested on: SR leukemia
SW-620 colon = tested on: SW-620 colon
TK-10 renal = tested on: TK-10 renal
U251 CNS = tested on: U251 CNS
UACC-257 melanoma = tested on: UACC-257 melanoma
UACC-62 melanoma = tested on: UACC-62 melanoma
UO-31 renal = tested on: UO-31 renal
XF 498 CNS = tested on: XF 498 CNS
CAKI-1 renal = tested on: CAKI-1 renal
HOP-92 NSCLC = tested on: HOP-92 NSCLC
M14 melanoma = tested on: M14 melanoma

O=c1n(C2CCCCC2)c(=C(Cl)Cl)c(=C(Cl)Cl)n1C1CCCCC1
TGI (786-0 renal): > 100 µM
TGI (A498 renal): > 100 µM
TGI (A549 NSCLC): > 100 µM
TGI (ACHN renal): > 100 µM
TGI (CCRF-CEM leukemia): > 100 µM
TGI (COLO 205 colon): > 100 µM
TGI (DLD-1 colon): > 100 µM
TGI (DMS 114 small cell lung): > 100 µM
TGI (DMS 273 small cell lung): > 100 µM
TGI (EKVX NSCLC): > 100 µM
TGI (HCC-2998 colon): > 100 µM
TGI (HCT-116 colon): > 100 µM
TGI (HCT-15 colon): > 100 µM
TGI (HL-60(TB) leukemia): > 100 µM
TGI (HOP-18 NSCLC): > 100 µM
TGI (HOP-62 NSCLC): > 100 µM
TGI (HT29 colon): > 100 µM
TGI (IGROV1 ovarian): > 100 µM
TGI (K-562 leukemia): > 100 µM
TGI (KM12 colon): > 100 µM
TGI (KM20L2 colon): > 100 µM
TGI (LOX IMVI melanoma): > 100 µM
TGI (M19-MEL melanoma): > 100 µM
TGI (MALME-3M melanoma): > 100 µM
TGI (MOLT-4 leukemia): > 100 µM
TGI (NCI-H226 lung): > 100 µM
TGI (NCI-H23 lung): > 100 µM
TGI (NCI-H460 lung): > 100 µM
TGI (NCI-H522 lung): > 100 µM
TGI (OVCAR-3 ovarian): > 100 µM
TGI (OVCAR-4 ovarian): > 100 µM
TGI (OVCAR-5 ovarian): > 100 µM
TGI (OVCAR-8 ovarian): > 100 µM
TGI (RPMI-8226 leukemia): > 100 µM
TGI (RXF 393 renal): > 100 µM
TGI (SF-268 CNS): > 100 µM
TGI (SF-295 CNS): > 100 µM
TGI (SF-539 CNS): > 100 µM
TGI (SK-MEL-2 melanoma): > 100 µM
TGI (SK-MEL-28 melanoma): > 100 µM
TGI (SK-MEL-5 melanoma): > 100 µM
TGI (SK-OV-3 ovarian): > 100 µM
TGI (SN12C renal): > 100 µM
TGI (SNB-19 CNS): > 100 µM
TGI (SNB-75 CNS): > 100 µM
TGI (SNB-78 CNS): > 100 µM
TGI (SR leukemia): > 100 µM
TGI (SW-620 colon): > 100 µM
TGI (TK-10 renal): > 100 µM
TGI (U251 CNS): > 100 µM
TGI (UACC-257 melanoma): > 100 µM
TGI (UACC-62 melanoma): > 100 µM
TGI (UO-31 renal): > 100 µM
TGI (XF 498 CNS): > 100 µM

COc1ccccc1NC(=O)CSC(N)=O
TGI (786-0 renal): 36.6 µM
TGI (A498 renal): > 100 µM
TGI (A549 NSCLC): > 100 µM
TGI (ACHN renal): > 100 µM
TGI (CAKI-1 renal): > 100 µM
TGI (CCRF-CEM leukemia): > 100 µM
TGI (COLO 205 colon): > 100 µM
TGI (DLD-1 colon): > 100 µM
TGI (DMS 114 small cell lung): > 100 µM
TGI (DMS 273 small cell lung): > 100 µM
TGI (EKVX NSCLC): > 100 µM
TGI (HCC-2998 colon): > 100 µM
TGI (HCT-116 colon): 36.6 µM
TGI (HCT-15 colon): > 100 µM
TGI (HL-60(TB) leukemia): > 100 µM
TGI (HOP-18 NSCLC): > 100 µM
TGI (HOP-62 NSCLC): 80.2 µM
TGI (HOP-92 NSCLC): > 100 µM
TGI (HT29 colon): > 100 µM
TGI (IGROV1 ovarian): > 100 µM
TGI (K-562 leukemia): > 100 µM
TGI (KM12 colon): > 100 µM
TGI (KM20L2 colon): > 100 µM
TGI (LOX IMVI melanoma): > 100 µM
TGI (M14 melanoma): > 100 µM
TGI (M19-MEL melanoma): > 100 µM
TGI (MALME-3M melanoma): > 100 µM
TGI (NCI-H226 lung): > 100 µM
TGI (NCI-H23 lung): > 100 µM
TGI (NCI-H460 lung): > 100 µM
TGI (NCI-H522 lung): > 100 µM
TGI (OVCAR-3 ovarian): > 100 µM
TGI (OVCAR-4 ovarian): > 100 µM
TGI (OVCAR-5 ovarian): > 100 µM
TGI (OVCAR-8 ovarian): > 100 µM
TGI (RPMI-8226 leukemia): > 100 µM
TGI (SF-268 CNS): > 100 µM
TGI (SF-295 CNS): > 100 µM
TGI (SF-539 CNS): 70.4 µM
TGI (SK-MEL-2 melanoma): 61.4 µM
TGI (SK-MEL-28 melanoma): > 100 µM
TGI (SK-MEL-5 melanoma): > 100 µM
TGI (SK-OV-3 ovarian): > 100 µM
TGI (SN12C renal): > 100 µM
TGI (SNB-19 CNS): > 100 µM
TGI (SNB-75 CNS): 84.3 µM
TGI (SNB-78 CNS): > 100 µM
TGI (SR leukemia): > 100 µM
TGI (SW-620 colon): > 100 µM
TGI (TK-10 renal): > 100 µM
TGI (U251 CNS): 66.2 µM
TGI (UACC-257 melanoma): > 100 µM
TGI (UACC-62 melanoma): 68.3 µM
TGI (XF 498 CNS): 83.6 µM
